Results: patent US12723233B2, “Media and methods for differentiating natural killer cells” (STEMCELL Technologies Canada Inc., priority 2018, dated 2026)

Legend:
NK cell progenitors = assay: Differentiation of cord blood CD34+-derived NK cell progenitors to CD56+ NK cells (culture days 14-28), flow cytometry and cell counts; assay type: cell-based, Human
Experimental: Human CB samples were obtained from Bloodworks NW (Seattle, WA) and CD34^+ cells were isolated using EasySep™ Human Cord Blood CD34 Positive Selection Kit II (STEMCELL Technologies, Catalogue #17896). Obtained in this way the purity of CD34^+ cells is typically higher than 90%.
The wells of a 24-well plate were coated with StemSpan™ Lymphoid Differentiation Coating Supplement (STEMCELL Technologies, Catalogue #09925) and 5000 CD34^+ cells were plated per well. The CD34^+ cells were cultured for up to 14 days in StemSpan™ SFEM II (STEMCELL Technologies, Catalogue #09605, 09655) supplemented with Lymphoid Progenitor Expansion Supplement (STEMCELL Technologies, Catalogue #09915) with media changes every 3-4 days.
After 14 days in culture, CD34^+ cell-derived NK cell progenitors were harvested. 50,000 NK cell progenitors were plated per well of an uncoated tissue culture 24-well plate. The plated NK cell progenitors were cultured for up to two weeks in NK Cell Differentiation medium (i.e StemSpan™ SFEM II (STEMCELL Technologies, Catalog # 09605, 09655) supplemented with NK Cell Differentiation Supplement (STEMCELL Technologies, Catalogue #09950), and cultured for an additional two weeks with media changes every 3-4 days. UM729 or UM171 was added to supplemented NK Cell Differentiation Medium on days 14-28. On day 28 cells were harvested for analysis or downstream applications.
Harvested cells were stained and measured by flow cytometry for expression of the NK cell lineage marker CD56. Dead cells were excluded by light scatter profile and 7-AAD or DRAQ7 staining. The results in FIGS. 1 and 2 at condition “0” (plotted on the x-axis) indicate the frequency and yield of CD56^+ NK cells that result from experiments that follows the protocol described above but in the absence of UM171 or UM729. Cell counts were obtained using the NucleoCounter NC250. Yield was calculated by dividing the resulting cell number by the number of cells initially seeded. Yields of specific cell types were obtained by multiplying total yield by cell frequency.
Cells were cultured as described in Example 1, with the exception that the up to two week culture of NK cell progenitors (i.e. culture days 14-28) in NK Cell Differentiation medium occurred in the presence or absence of UM171 or UM729.
The effects of UM171 and UM729 were tested across a range of concentrations: 0 nM, 50 nM, 100 nM, 150 nM and 200 nM for UM171; and 0 μM, 0.25 μM, 0.5 μM, 1 μM, and 2 μM for UM729.
CD34^+ CB cells were isolated and cultured as described in Example 1 up to the day 14 time point. Day 14 NK cell progenitors were further cultured in NK Cell Differentiation medium, essentially as described in Example 1, except in the absence of an added pyrimidoindole compound but in the presence or absence of 5 μM CH223191.

K562 target cells = assay: Calcein AM release cytotoxicity assay of differentiated CD56+ NK cells; assay type: cell-based; settings: cells differentiated in the presence of 1 μM UM729, day 28; effector to target ratio 5:1, 4 hours
Experimental: CD56^+ NK cells were differentiated as described in Examples 1 and 2 in the presence of 1 μM UM729 and analyzed on day 28 for their cytotoxicity toward K562 target cells.
For the cytotoxicity assay, the in vitro generated CD56^+ NK cells were co-cultured with Calcein AM labeled K562 cells for 4 hours at a ratio of 5:1 for effector cells (NK cells) to target cells (K562 cells), and supernatants were analysed for the release of fluorescent Calcein from killed target cells.
Peripheral blood (PB) NK cells and Monocytes isolated using EasySep™ (STEMCELL Technologies, Catalogue #17955 and 19359, respectively) were also co-cultured with labelled K562 cells as positive and negative controls, respectively, at the same ratios described above.
To detect spontaneous release of calcein, control wells containing only calcein AM-labeled K562 target cells were set up. The labeled K562 cells were treated with 1% Triton™ X-100 to measure maximum release. After incubation, plates were centrifuged at 500×g for 5 minutes and 100 μL of supernatant was transferred to black plates and analyzed using a SpectraMax® microplate reader (excitation 485 nm/emission 530 nm). Results are expressed as % specific lysis: [(test release−spontaneous release)×100]/(maximum release−spontaneous release).

PSC-derived CD34+ cells = assay: Differentiation of PSC-derived CD34+ cells into CD5+CD7+ NK cell progenitors; assay type: cell-based, Human; settings: 1 μM UM729 during days 10 to 24; PSC lines 1C, M001, H1, F016
Experimental: PSC-derived […] cells were generated as described in Example 11. The PSC-derived […] cells were cultured as described in Example 11, except the effect of the presence or absence of 1 μM UM729 on the differentiation of a population of NK cell progenitors was assessed. The cells were stained for CD5 and CD7 essentially as described in Example 3 and analyzed for frequency of CD5^+CD7^+ cells and yield of CD5^+CD7^+ cells per 5×10^4 input PSC-derived […] cells. Both the frequency (FIG. 15A) and yield (FIG. 15B) of CD5^+CD7^+ cells decreased after culturing the PSC-derived […] cells in the presence of UM729, as compared to culturing such cells in the absence of UM729. Therefore, the presence of UM729 during days 10 to 24 of culturing PSC-derived […] cells decreases the frequency and yield of CD5^+CD7^+ NK progenitor cells.

[1] = 1 μM UM729, normalized to STD cultures, n=20
[2] = tested 0, 0.25, 0.5, 1, 2 μM, days 14-28

COC(=O)c1ccc2c(c1)[nH]c1ncnc(NCCCN3CCCCC3)c12 [UM729, methyl 4-((3-(piperidin-1-yl)propyl)amino)-9H-pyrimido[4,5-b]indole-7-carboxylate]
Frequency of CD56+ NK cells compared to cultures lacking UM729 (NK cell progenitors; 1 μM UM729, 14 days culture of NK cell progenitors, paired t-test p=0.017): increased significantly
Yield of CD56+ NK cells per input cell compared to cultures lacking UM729 (NK cell progenitors; 1 μM UM729, 14 days culture of NK cell progenitors, paired t-test p=0.032): increased significantly
Increase of average frequency of NK cells compared to culture conditions not including a pyrimidoindole compound (NK cell progenitors; [1]): ~ 30%
Increase of average yield of NK cells compared to culture conditions not including a pyrimidoindole compound (NK cell progenitors; [1]): 2 fold
Concentration at which frequency of CD56+ NK cells appeared to be highest (NK cell progenitors; [2]): 1 µM
Concentration at which yield of CD56+ NK cells appeared to be highest (NK cell progenitors; [2]): 1 µM
Cytotoxicity (killing ability) of differentiated NK cells toward K562 target cells (K562 target cells): able to kill K562 target cells
Frequency of CD5+CD7+ cells compared to absence of UM729 (PSC-derived CD34+ cells): decreased
Yield of CD5+CD7+ cells per 5×10^4 input PSC-derived cells compared to absence of UM729 (PSC-derived CD34+ cells): decreased
